From PubChem BioAssay (NCI)
“And” between values parts separate entries of the source, which are not always exact repeats. Equal values may be shown once.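 Tested at 5 concentrations; 48 h exposure; 96-well plates; endpoints linearly interpolated, else capped at highest concentration. GI50: concentration for 50% inhibition of growth. TGI: concentration producing complete growth inhibition.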

Assays:
Assay in all cases: NCI tumour cell line growth inhibition, 48 h
[1] = tested on: DMS 273 small cell lung
[2] = tested on: MDA-MB-435
[3] = tested on: HL-60(TB) leukemia
[4] = tested on: P388/ADR leukemia
[5] = tested on: KM12 colon
[6] = tested on: SN12K1 renal
[7] = tested on: U251 CNS
[8] = tested on: SK-MEL-2 melanoma
[9] = tested on: RXF-631 renal
[10] = tested on: SK-MEL-5 melanoma
[11] = tested on: SR leukemia
[12] = tested on: UACC-62 melanoma
[13] = tested on: A498 renal
[14] = tested on: RPMI-8226 leukemia
[15] = tested on: UO-31 renal
[16] = tested on: MDA-MB-231 breast
[17] = tested on: MDA-N
[18] = tested on: NCI/ADR-RES ovarian
[19] = tested on: NCI-H460 lung
[20] = tested on: SW-620 colon
[21] = tested on: SK-MEL-28 melanoma
[22] = tested on: P388 leukemia
[23] = tested on: HCC-2998 colon
[24] = tested on: LXFL 529 NSCLC
[25] = tested on: LOX IMVI melanoma
[26] = tested on: CCRF-CEM leukemia
[27] = tested on: SK-OV-3 ovarian
[28] = tested on: SNB-75 CNS
[29] = tested on: IGROV1 ovarian
[30] = tested on: NCI-H522 lung
[31] = tested on: BT-549 breast
[32] = tested on: HOP-18 NSCLC
[33] = tested on: MOLT-4 leukemia
[34] = tested on: OVCAR-4 ovarian
[35] = tested on: EKVX NSCLC
[36] = tested on: T-47D breast
[37] = tested on: K-562 leukemia
[38] = tested on: SN12C renal
[39] = tested on: DMS 114 small cell lung
[40] = tested on: HOP-62 NSCLC
[41] = tested on: UACC-257 melanoma
[42] = tested on: SF-539 CNS
[43] = tested on: ACHN renal
[44] = tested on: SF-268 CNS
[45] = tested on: 786-0 renal
[46] = tested on: NCI-H23 lung
[47] = tested on: OVCAR-5 ovarian
[48] = tested on: MALME-3M melanoma
[49] = tested on: SF-295 CNS
[50] = tested on: MCF7 breast
[51] = tested on: TK-10 renal

Question: `O=NN(CCCl)C(=O)NCCCl` was tested. Which TGI [1] did it give?
Answer: 157 µM

Question: And the GI50 [2]?
Answer: 50 µM and 331 µM

Question: What about the TGI [2] of the same molecule?
Answer: 127 µM and 147 µM and > 500 µM

Question: What about the GI50 [3] of the same molecule?
Answer: 30.5 µM and 11.3 µM

Question: What about the TGI [3] of the same molecule?
Answer: 89.3 µM and 67.3 µM and 28.9 µM

Question: And the TGI [4]?
Answer: 48 µM

Question: What about the GI50 [5] of the same molecule?
Answer: > 500 µM

Question: What about the TGI [5] of the same molecule?
Answer: 250 µM and 194 µM and > 500 µM

Question: What about the TGI [6] of the same molecule?
Answer: 127 µM

Question: And the GI50 [7]?
Answer: 31.3 µM and 146 µM

Question: And the TGI [7]?
Answer: 66.4 µM and 124 µM and > 306 µM

Question: And the TGI [8]?
Answer: 115 µM and 178 µM and > 500 µM

Question: What about the TGI [9] of the same molecule?
Answer: 203 µM

Question: And the GI50 [10]?
Answer: 95.6 µM and 362 µM

Question: What about the TGI [10] of the same molecule?
Answer: 250 µM and 161 µM and > 500 µM

Question: What about the GI50 [11] of the same molecule?
Answer: 38.5 µM

Question: What about the TGI [11] of the same molecule?
Answer: 122 µM and 97.7 µM

Question: What about the GI50 [12] of the same molecule?
Answer: 44.9 µM and > 151 µM

Question: What about the TGI [12] of the same molecule?
Answer: 169 µM and 91.9 µM and > 260 µM

Question: What about the GI50 [13] of the same molecule?
Answer: 178 µM

Question: And the TGI [13]?
Answer: 250 µM and 221 µM

Question: What about the GI50 [14] of the same molecule?
Answer: 34.3 µM and 118 µM

Question: And the TGI [14]?
Answer: 120 µM and 198 µM and 260 µM

Question: What about the GI50 [15] of the same molecule?
Answer: 75.9 µM

Question: What about the TGI [15] of the same molecule?
Answer: 148 µM and 186 µM and 179 µM

Question: What about the GI50 [16] of the same molecule?
Answer: 61.8 µM and 224 µM

Question: And the TGI [16]?
Answer: 164 µM and 160 µM and > 295 µM

Question: What about the GI50 [17] of the same molecule?
Answer: 210 µM

Question: And the TGI [17]?
Answer: 158 µM and > 301 µM

Question: What about the GI50 [18] of the same molecule?
Answer: 61.7 µM and 266 µM

Question: What about the TGI [18] of the same molecule?
Answer: 156 µM and 234 µM and > 422 µM

Question: And the GI50 [19]?
Answer: 62.4 µM

Question: What about the TGI [19] of the same molecule?
Answer: 250 µM and 168 µM

Question: And the GI50 [20]?
Answer: 40.1 µM and 102 µM

Question: What about the TGI [20] of the same molecule?
Answer: 102 µM and 130 µM and 229 µM

Question: And the TGI [21]?
Answer: 147 µM and 165 µM

Question: What about the TGI [22] of the same molecule?
Answer: 40.9 µM

Question: And the GI50 [23]?
Answer: 63.5 µM and 260 µM

Question: And the TGI [23]?
Answer: 161 µM and 201 µM and > 370 µM

Question: And the TGI [24]?
Answer: 141 µM

Question: And the GI50 [25]?
Answer: 29.5 µM and 170 µM

Question: And the TGI [25]?
Answer: 67.4 µM and 124 µM and 362 µM

Question: And the GI50 [26]?
Answer: 46 µM and 33.6 µM

Question: And the TGI [26]?
Answer: 142 µM and 97.8 µM and 65.6 µM

Question: And the GI50 [27]?
Answer: 226 µM and > 500 µM

Question: And the TGI [27]?
Answer: 250 µM and 211 µM and > 500 µM

Question: What about the GI50 [28] of the same molecule?
Answer: 195 µM

Question: And the TGI [28]?
Answer: 127 µM and 128 µM and > 421 µM

Question: And the GI50 [29]?
Answer: 55.9 µM and 196 µM

Question: What about the TGI [29] of the same molecule?
Answer: 176 µM and 150 µM and > 374 µM

Question: What about the GI50 [30] of the same molecule?
Answer: 47.7 µM and 102 µM

Question: And the TGI [30]?
Answer: 107 µM and 113 µM and 179 µM

Question: What about the GI50 [31] of the same molecule?
Answer: 47.3 µM and 251 µM

Question: And the TGI [31]?
Answer: 92.8 µM and 148 µM and > 300 µM

Question: And the TGI [32]?
Answer: 160 µM

Question: And the GI50 [33]?
Answer: 39.3 µM and 110 µM

Question: And the TGI [33]?
Answer: 151 µM and 161 µM and 320 µM

Question: And the GI50 [34]?
Answer: 42.7 µM and > 352 µM

Question: And the TGI [34]?
Answer: 83.3 µM and 161 µM and > 398 µM

Question: And the GI50 [35]?
Answer: 152 µM and > 268 µM

Question: And the TGI [35]?
Answer: 250 µM and 225 µM and > 326 µM

Question: And the GI50 [36]?
Answer: 74.7 µM and 234 µM

Question: And the TGI [36]?
Answer: 250 µM and 220 µM and > 331 µM

Question: What about the TGI [37] of the same molecule?
Answer: 44.6 µM and 206 µM and 280 µM

Question: And the GI50 [38]?
Answer: 240 µM

Question: And the TGI [38]?
Answer: 185 µM and 151 µM and > 310 µM

Question: And the TGI [39]?
Answer: 142 µM

Question: And the GI50 [40]?
Answer: 64.3 µM and 281 µM

Question: What about the TGI [40] of the same molecule?
Answer: 135 µM and 209 µM and > 389 µM

Question: What about the GI50 [41] of the same molecule?
Answer: > 258 µM

Question: What about the TGI [41] of the same molecule?
Answer: 238 µM and 159 µM and > 369 µM

Question: And the GI50 [42]?
Answer: 31 µM and 84.1 µM

Question: And the TGI [42]?
Answer: 92.6 µM and 116 µM and 190 µM

Question: What about the GI50 [43] of the same molecule?
Answer: 64.4 µM

Question: And the TGI [43]?
Answer: 170 µM and 172 µM

Question: And the GI50 [44]?
Answer: 31 µM

Question: What about the TGI [44] of the same molecule?
Answer: 98.4 µM and 138 µM and > 259 µM

Question: And the GI50 [45]?
Answer: 60 µM and 98.6 µM

Question: And the TGI [45]?
Answer: 141 µM and 113 µM and > 263 µM

Question: What about the GI50 [46] of the same molecule?
Answer: > 272 µM

Question: And the TGI [46]?
Answer: 228 µM and 182 µM and > 367 µM

Question: What about the GI50 [47] of the same molecule?
Answer: 52.3 µM and > 500 µM

Question: And the TGI [47]?
Answer: 104 µM and 184 µM and > 500 µM

Question: And the GI50 [48]?
Answer: 55.9 µM and 216 µM

Question: And the TGI [48]?
Answer: 108 µM and 161 µM and > 294 µM

Question: And the GI50 [49]?
Answer: 36.3 µM and 123 µM

Question: And the TGI [49]?
Answer: 250 µM and 126 µM and > 380 µM

Question: And the GI50 [50]?
Answer: 231 µM

Question: And the TGI [50]?
Answer: 250 µM and 191 µM and > 312 µM

Question: What about the GI50 [51] of the same molecule?
Answer: 59.6 µM and > 279 µM

Question: What about the TGI [51] of the same molecule?
Answer: 144 µM and 173 µM and > 373 µM
